This passage reports GI50 and TGI results from PubChem BioAssay (NCI).

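Grown in 96-well plates, cells were treated for 48 hours with each compound at five concentrations. Insufficient inhibition: endpoint recorded as highest concentration tested. GI50 = concentration required for 50% inhibition of growth. TGI denotes the concentration required for complete inhibition of growth.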

Among the test systems are CAKI-1 renal; COLO 205 colon; EKVX NSCLC; MALME-3M melanoma; NCI-H460 lung; OVCAR-8 ovarian; RPMI-8226 leukemia; SN12C renal; TK-10 renal; UO-31 renal.
Common to all, as to experiment: inhibition of tumour cell growth, NCI panel, 48 h

With `O=C(Nc1ccc(N2CCNCC2)cc1)c1[nH]ncc1Nc1ncnc2sc3c(c12)CCC3`, the GI50 with CAKI-1 renal is 0.148 µM; in the assay with COLO 205 colon, 0.124 µM; in the assay on EKVX NSCLC it was 0.194 µM; in the assay on MALME-3M melanoma, 0.121 µM; with NCI-H460 lung, 0.0845 µM; in the assay on OVCAR-8 ovarian, 0.36 µM. Also, the GI50 in the assay with RPMI-8226 leukemia was 0.67 µM; in the assay with SN12C renal, 0.412 µM; in the assay on TK-10 renal it was 0.41 µM; in the assay on UO-31 renal, 0.431 µM. The TGI in the assay with CAKI-1 renal was 1.6 µM; in the assay on COLO 205 colon, 1.31 µM; in the assay on EKVX NSCLC it was 1.94 µM; in the assay on MALME-3M melanoma, 1.77 µM; in the assay with NCI-H460 lung, 0.978 µM; in the assay on OVCAR-8 ovarian it was 1.84 µM. Further, the TGI in the assay with RPMI-8226 leukemia was found to be 3.58 µM; in the assay on SN12C renal, 1.84 µM; in the assay with TK-10 renal, 2.05 µM; in the assay on UO-31 renal, 1.84 µM.

Regarding `COc1cc2c(cc1OC)C(=O)/C(=C/c1cccc(OCC(=O)c3ccccc3)c1)C2`, the GI50 is 12.7 µM in the assay on CAKI-1 renal; 28 µM in the assay with COLO 205 colon; 33.5 µM in the assay on EKVX NSCLC; 25.1 µM in the assay on MALME-3M melanoma; 13.3 µM with NCI-H460 lung; 5.04 µM in the assay on OVCAR-8 ovarian. Moreover, the GI50 was 1.4 µM with RPMI-8226 leukemia, 23.8 µM with SN12C renal, 57.8 µM in the assay with TK-10 renal and 6.93 µM in the assay on UO-31 renal. For the same compound, the TGI is 79.3 µM in the assay on CAKI-1 renal; more than 100 µM with COLO 205 colon; more than 100 µM in the assay on EKVX NSCLC; more than 100 µM with MALME-3M melanoma; 91.9 µM in the assay on NCI-H460 lung; more than 100 µM in the assay on OVCAR-8 ovarian. For the same compound, the TGI in the assay with RPMI-8226 leukemia was 3.9 µM; in the assay on SN12C renal it was more than 100 µM; in the assay on TK-10 renal, more than 100 µM; with UO-31 renal it was more than 100 µM.

As to `O=C(CCCCCCSc1nc(-c2ccccc2)cc(-c2ccc(Cl)cc2)n1)NO`, the GI50 is 1.51 µM with CAKI-1 renal; 2.38 µM in the assay with COLO 205 colon; 3.7 µM with EKVX NSCLC; 1.25 µM in the assay with MALME-3M melanoma; 1.22 µM with NCI-H460 lung; 1.93 µM in the assay on OVCAR-8 ovarian. Besides, the GI50 in the assay on RPMI-8226 leukemia is 0.64 µM; in the assay with SN12C renal it was 2.14 µM; in the assay on TK-10 renal, 2.78 µM; in the assay with UO-31 renal, 0.905 µM. In addition, the TGI in the assay on CAKI-1 renal is 6.89 µM; in the assay with COLO 205 colon, 5.76 µM; in the assay with EKVX NSCLC, 14.3 µM; with MALME-3M melanoma, 9.05 µM; in the assay with NCI-H460 lung, 10.2 µM; in the assay with OVCAR-8 ovarian it was 10.2 µM. In addition, the TGI worked out at 6.19 µM with RPMI-8226 leukemia, 6.35 µM in the assay on SN12C renal, 13.5 µM in the assay on TK-10 renal and 2.65 µM in the assay with UO-31 renal.

In the case of `CCOc1ccccc1NC(=O)C(=O)CC(=O)c1c(C)n([O-])c2ccccc2[n+]1=O`, the TGI in the assay on CAKI-1 renal, in the assay with COLO 205 colon, in the assay on EKVX NSCLC, with MALME-3M melanoma, in the assay on NCI-H460 lung and in the assay on OVCAR-8 ovarian was more than 100 µM throughout. Also, the TGI in the assay with RPMI-8226 leukemia, with SN12C renal, with TK-10 renal and in the assay on UO-31 renal was more than 100 µM throughout.

Regarding `COc1ccc2c(c1)[nH]c(=O)c1c3cc(C)c(C)cc3cn21`, the GI50 is less than 0.01 µM in the assay on CAKI-1 renal; less than 0.0134 µM with COLO 205 colon; 0.0563 µM in the assay with EKVX NSCLC; 0.161 µM in the assay with MALME-3M melanoma; less than 0.018 µM in the assay with NCI-H460 lung; less than 0.0179 µM in the assay with OVCAR-8 ovarian. Also, the GI50 in the assay on RPMI-8226 leukemia was less than 0.01 µM; in the assay with SN12C renal, less than 0.0192 µM; in the assay on TK-10 renal, 0.32 µM; with UO-31 renal it was less than 0.0119 µM. The TGI amounted to 0.0102 µM in the assay with CAKI-1 renal; 0.0248 µM in the assay on COLO 205 colon; 4.67 µM in the assay on EKVX NSCLC; 2.76 µM with MALME-3M melanoma; 1.02 µM in the assay on NCI-H460 lung; 1.48 µM in the assay with OVCAR-8 ovarian. For the same compound, the TGI worked out at 0.0656 µM in the assay with RPMI-8226 leukemia, 1.74 µM in the assay on SN12C renal, 1.27 µM in the assay on TK-10 renal and 1.72 µM with UO-31 renal.

`Cc1ncc(CN=Cc2ccc(Cl)cc2)c(N)n1`: the TGI in the assay on CAKI-1 renal, in the assay on COLO 205 colon, in the assay on EKVX NSCLC, with MALME-3M melanoma, with NCI-H460 lung and in the assay with OVCAR-8 ovarian was more than 100 µM each time. Besides, the TGI in the assay on RPMI-8226 leukemia, in the assay on SN12C renal, in the assay with TK-10 renal and with UO-31 renal was more than 100 µM in each case.

Turning to `COC(=O)N[C@H]1CCc2c(Br)c(OC)c(OC)c(OC)c2-c2ccc(SC)c(=O)cc21`, the GI50 in the assay with CAKI-1 renal was less than 0.0209 µM; in the assay on EKVX NSCLC, less than 0.01 µM; with MALME-3M melanoma, 0.0148 µM; in the assay on NCI-H460 lung, less than 0.01 µM; with OVCAR-8 ovarian, less than 0.01 µM; in the assay on RPMI-8226 leukemia, less than 0.01 µM. Moreover, the GI50 with SN12C renal is less than 0.01 µM; in the assay on TK-10 renal, 9.63 µM; in the assay on UO-31 renal, less than 0.0281 µM. Also, the TGI in the assay on CAKI-1 renal was 21.9 µM; in the assay on EKVX NSCLC it was more than 85.4 µM; with MALME-3M melanoma it was 30.5 µM; in the assay with NCI-H460 lung, 10.7 µM; in the assay with OVCAR-8 ovarian, more than 77.2 µM; in the assay with RPMI-8226 leukemia, 5.84 µM. Besides, the figures for the TGI in the assay with SN12C renal, with TK-10 renal and with UO-31 renal were 25.5 µM, more than 85.9 µM and 19 µM, respectively.

As to `O=C(c1ccccc1)C(c1ccccc1)C1(O)C(=O)Nc2c(Cl)cc(Cl)cc21` (stereo not drawn), the TGI in the assay on CAKI-1 renal is 40.1 µM; in the assay on COLO 205 colon it was 33.7 µM; with EKVX NSCLC, 27.8 µM; with MALME-3M melanoma, 32.7 µM; with NCI-H460 lung it was more than 100 µM; in the assay with OVCAR-8 ovarian, 32.9 µM. In addition, the TGI is 38.8 µM with RPMI-8226 leukemia, more than 100 µM with SN12C renal, 41.2 µM in the assay with TK-10 renal and 38.4 µM in the assay on UO-31 renal.

Regarding `O=C(CN1CCN(c2ncccn2)CC1)Nc1ccc(Cl)cc1C(=O)c1ccccc1Cl`, the GI50 in the assay with CAKI-1 renal, in the assay on COLO 205 colon, with EKVX NSCLC, in the assay with MALME-3M melanoma, in the assay on NCI-H460 lung and in the assay with OVCAR-8 ovarian was more than 100 µM each time. Also, the GI50 was 9.51 µM in the assay on RPMI-8226 leukemia, more than 100 µM with SN12C renal, more than 100 µM with TK-10 renal and more than 100 µM in the assay with UO-31 renal. Moreover, the TGI in the assay with CAKI-1 renal, with COLO 205 colon, in the assay on EKVX NSCLC, in the assay with MALME-3M melanoma, in the assay with NCI-H460 lung and with OVCAR-8 ovarian was more than 100 µM in each case. Moreover, the TGI in the assay with RPMI-8226 leukemia, in the assay with SN12C renal, with TK-10 renal and with UO-31 renal was more than 100 µM in each case.
